Consider six compounds from US20260256729A1, “CARBAMOYL PHEN[…] AS TAAR1 AGONISTS” (AXSOME THERAPEUTICS, INC., priority 2022, published 2026).

Where two headings read alike, the source gives them in different places.

The test system of one assay is wild type mice. As to the kind of experiment: Open field locomotor activity, wild type mice. It is filed as in vivo, mouse. The conditions noted are these: subcutaneous, solriamfetol 10, 30 or 100 mg/kg, amphetamine 2 mg/kg. How it is done:
(§1) Open field locomotor activity was assessed using an automated Omnitech Digiscan (AccuScan Instruments, Columbus, OH).

Assay [1] relates to dopamine transporter deficient (DAT-/-) mice. As to the kind of experiment: Open field locomotor activity, DAT-/- mice (hyperlocomotion). Format: in vivo, mouse. The following applies: subcutaneous, solriamfetol 10, 30 or 100 mg/kg, amphetamine 2 mg/kg. How it is done: as §1
Assay [2] has as its target T1, human norepinephrine transporter (hNET) (Homo sapiens, UniProt P23975). More on the design: host or cells: unnamed cell lines or membrane preparations. The conditions noted are these: data from published literature (footnote b); cited from earlier work.
Assay [3] concerns the target T1, human norepinephrine transporter (hNET). As to the kind of experiment: hNET inhibition, in vitro binding and functional studies.
The subject of assay [4] is ventral tegmental area (VTA) dopaminergic neurons. As to the kind of experiment: Firing frequency of VTA dopaminergic neurons in acute brain slices (electrophysiology). It is filed as cell-based, mouse. The conditions noted are these: for firing frequency of VTA neurons: acute slices from male C57Bl6/J mice, current clamp; for reduction in firing frequency after pre-treatment with D2 receptor antagonist sulpiride: acute slices. Here is the method:
The firing frequency of ventral tegmental area (VTA) dopaminergic neurons (n=4-8 cells/experiment) in acute slice preparations was recorded using electrophysiology and analyzed. Brain slices (250 μm thickness) containing VTA from male C57Bl6/J mice were prepared using standard procedures. Slices were perfused with artificial cerebrospinal fluid (aCSF) and spontaneous action potentials were recorded from dopaminergic neurons in current clamp conditions using […] and pClamp10 (Axon Instruments; Revel, Proc. Natl. Acad. Sci. USA 108(20):8485-90 (2011)). […] In addition, the reduction in firing frequency by solriamfetol or TAAR1 agonist RO5256390 was antagonized by pre-treatment with the D2 receptor antagonist sulpiride (FIG. 3A-3B).

Assay [5] addresses human dopamine transporter (hDAT) (Homo sapiens, UniProt Q01959). As to the kind of experiment: hDAT inhibition, in vitro binding and functional studies.
Assay [6] can be described thus: Binding assay panel for additional targets.

T1 sequence (P23975 whole entry): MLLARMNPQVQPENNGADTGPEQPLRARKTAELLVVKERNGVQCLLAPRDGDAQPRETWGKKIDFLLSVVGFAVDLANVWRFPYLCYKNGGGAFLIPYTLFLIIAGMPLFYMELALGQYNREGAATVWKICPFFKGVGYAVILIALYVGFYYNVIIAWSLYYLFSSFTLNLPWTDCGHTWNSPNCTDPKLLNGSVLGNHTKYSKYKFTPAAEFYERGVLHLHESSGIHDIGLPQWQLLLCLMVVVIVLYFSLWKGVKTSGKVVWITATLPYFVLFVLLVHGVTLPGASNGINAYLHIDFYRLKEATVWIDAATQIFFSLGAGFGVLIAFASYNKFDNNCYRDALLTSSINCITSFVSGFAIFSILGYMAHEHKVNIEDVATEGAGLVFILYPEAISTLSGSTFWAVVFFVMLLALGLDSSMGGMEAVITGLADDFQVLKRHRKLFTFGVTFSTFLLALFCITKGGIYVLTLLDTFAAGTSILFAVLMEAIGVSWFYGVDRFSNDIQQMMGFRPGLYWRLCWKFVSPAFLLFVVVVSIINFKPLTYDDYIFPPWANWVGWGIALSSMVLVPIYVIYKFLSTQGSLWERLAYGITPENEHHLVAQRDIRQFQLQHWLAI
human dopamine transporter (hDAT), sequence (Q01959 whole entry): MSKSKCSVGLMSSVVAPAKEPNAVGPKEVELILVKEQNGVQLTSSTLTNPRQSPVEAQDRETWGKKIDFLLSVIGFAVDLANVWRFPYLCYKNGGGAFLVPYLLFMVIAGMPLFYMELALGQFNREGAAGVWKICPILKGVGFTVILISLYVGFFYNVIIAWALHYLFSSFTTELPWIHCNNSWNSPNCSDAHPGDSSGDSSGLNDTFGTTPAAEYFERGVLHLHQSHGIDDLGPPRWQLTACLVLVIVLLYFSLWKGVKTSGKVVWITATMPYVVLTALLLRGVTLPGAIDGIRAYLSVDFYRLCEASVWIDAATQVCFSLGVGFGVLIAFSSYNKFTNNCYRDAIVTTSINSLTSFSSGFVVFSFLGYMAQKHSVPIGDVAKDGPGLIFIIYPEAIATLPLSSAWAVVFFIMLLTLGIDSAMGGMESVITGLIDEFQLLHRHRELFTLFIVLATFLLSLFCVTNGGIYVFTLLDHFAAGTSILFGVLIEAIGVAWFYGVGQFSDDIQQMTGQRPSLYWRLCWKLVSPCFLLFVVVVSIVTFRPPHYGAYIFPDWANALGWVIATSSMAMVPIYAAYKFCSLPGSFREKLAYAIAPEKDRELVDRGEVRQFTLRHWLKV

`CC(N)Cc1ccccc1` (centres unmarked) [amphetamine]: in the assay on wild type mice, the “locomotor activity (total distance traveled in 90 minutes)” value is recorded as “increase locomotor activity”. In addition, the “hyperlocomotion (total distance traveled in 90 minutes)” value (“hyperlocomotion” below) in assay [1] was “reduced hyperlocomotion”.

Broadly, the IC50 is the concentration that inhibits the measured activity by half. With (+)Methamphetamine, the IC50 in assay [2] was 0.0013 µM.

On to `NC(=O)C[S+]([O-])C(c1ccccc1)c1ccccc1` (centres unmarked) [Modafinil], for which the 50% inhibitory concentration (IC50) in assay [3] is > 100 µM.

Take `CCN(C[C@H]1COC(N)=N1)c1ccccc1` [ROS166017]: the “hyperlocomotion” value in assay [1] is recorded as “reduced hyperlocomotion”.

For the compound `CC[C@@H](C[C@H]1COC(N)=N1)c1ccccc1` [RO5256390], in assay [4], the “firing frequency of VTA neurons” value was “inhibited firing frequency by VTA neurons in a dose-dependent manner” and the “reduction in firing frequency after pre-treatment with D2 receptor antagonist sulpiride” value is “antagonized”.

The compound `NC(=O)OC[C@H](N)Cc1ccccc1` [Solriamfetol, (R)-2-amino-3-phenylpropyl carbamate] showed an IC50 in assay [3] of 14.4 µM. Besides, the “locomotor activity (total distance traveled in 90 minutes)” value with wild type mice is given as “did not increase locomotor activity”. For the same compound, in assay [1], the “hyperlocomotion” value is recorded as “reduced hyperlocomotion”. Besides, the IC50 in assay [5] worked out at 3.21 µM. The “additional targets in binding assay panel” value in assay [6] is reported as “no additional targets were identified”. In assay [4], the “firing frequency of VTA neurons” value is recorded as “inhibited firing frequency by VTA neurons in a dose-dependent manner” and the “reduction in firing frequency after pre-treatment with D2 receptor antagonist sulpiride” value is listed as “antagonized”.
